# Measured values: patent US5633255A, “1,2-dihydro-2-oxo-3-aminoquinoxaline derivatives, their preparation and their therapeutic application” (Pierre Fabre Medicament, priority 1992, dated 1997)
# Counter-ions that a name gives are not always drawn.
# Tests used:
# [1] = test system: trachea (contraction induced by potassium chloride); assay: antagonism of the effect of potassium chloride (contractions of isolated guinea pig trachea); type: cell-based; conditions: Cavia porcellus, 5 min, potassium chloride 1850 μg/ml, 5 min contact, 37° C.
# Protocol: (§1) To this end, the compounds were studied for their antagonistic effect on the contractions induced by various products according to the following procedure. A piece of trachea from a male three-colored guinea pig weighing 400 g on average is cut into rings and mounted (2.5 cm approximately) in an insulated organ tank which is thermostatted at 37° C. and filled with oxygenated Tyrode's solution. The isometric contractions induced by the various mediators are recorded using a Gould Statham UC2 sensor (Gould Inc. Oxnard, Calif., U.S.A.) or a Palmer Bioscience UF1 sensor connected to a potentiometric recorder ([…], Selb, FRG). At the start of the experiment, the fragment of trachea is subjected to a tension of 1 g and left to stand for 1 hour. The following mediator concentrations are used (concentrations generally inducing a maximum contraction): histamine dihydrochloride, 10 μg/ml; potassium chloride, 1850 μg/ml. The concentrations of agents used result in contractions which become maximal after 5 to 15 min. depending on the mediators and remain at a steady level thereafter. A concentration of the product studied is administered for each contraction and the product is left in contact with the trachea for 5 min. The possible inhibition obtained after this time is measured (percentage of variation in the amplitude of the contraction). The trachea is next washed for 15 seconds and left to stand for 10 min. approximately (time necessary to return to the base tonus) before inducing a new contraction. The water-insoluble products are diluted in 0.178% (v.v) (final bath concentration) dimethyl sulfoxide (DMSO). […] The 50% inhibitory concentrations (IC50) are calculated using an SAS (Statistical Analysis System) program based on the model of Bliss and […] (Bliss C. I. and […]. Biological Assay Ann. Rev. Physiol. 5, 479, 1943).
# [2] = test system: trachea (contraction induced by histamine); assay: antagonism of the effect of histamine (contractions of isolated guinea pig trachea); type: cell-based; conditions: Cavia porcellus, 5 min, histamine dihydrochloride 10 μg/ml, 5 min contact, 37° C.
# Protocol: as §1
# Zymosan Pleurisy = assay: pleurisy model with Zymosan in rats; type: in vivo, rat (male Sprague Dawley); conditions: po; rat, 100 mg/kg p.o. one hour before Zymosan (10 mg intrapleural), exudate measured 1 hour later; read-out: Zymosan Pleurisy volume pleural exudate
# Protocol: The compounds of the invention were also tested on the pleurisy model with Zymosan in rats ([…] et al. Pharmacol. Res., 21, 385, 1989) according to the following procedure: 10 mg of Zymosan in a volume of 0.15 ml of sterile 0.9% NaCl are injected into the pleural cavity of male Sprague Dawley rats mildly anesthetized with ether. The animals are sacrificed 1 hour later and the pleural exudate is withdrawn and measured. The animals are kept unfed from the evening before. The products are administered p.o. one hour before injection of the inflammation-inducing agent, at a dose of 100 mg/kg.
Structure (SMILES),IC50 [1],IC50 [2],change in vivo at 100 mg/kg (Zymosan Pleurisy)
"CCCn1c(=O)c(N)nc2ccccc21.Cl [Compound 5, 1-n-propyl-1,2-dihydro-2-oxo-3-aminoquinoxaline hydrochloride]",19.3 µg/mL,4.6 µg/mL,-21%
"CCCn1c(=O)c(N(C)C)nc2ccccc21.Cl [Compound 7, 1-n-propyl-1,2-dihydro-2-oxo-3-dimethylaminoquinoxaline hydrochloride]",28 µg/mL,10.7 µg/mL,-44%
CCCCn1c(=O)c(N)nc2ccccc21 [Compound 8],9.6 µg/mL,1.7 µg/mL,4%
CCCCn1c(=O)c(NC)nc2ccccc21 [Compound 9],11.1 µg/mL,0.55 µg/mL,-29%
C=CCn1c(=O)c(N)nc2ccccc21 [Compound 11],21 µg/mL,5.9 µg/mL,-33%
"CC(C)=CCn1c(=O)c(N)nc2ccccc21 [Compound 14, hydrochloride]",7.4 µg/mL,2.6 µg/mL,-14%
CNc1nc2ccccc2n(CC=C(C)C)c1=O [Compound 15],,0.65 µg/mL,-5%
"CC(C)(O)CCn1c(=O)c(N)nc2ccccc21 [Compound 17, 1-(3-methyl-3-hydroxy)butyl-1,2-dihydro-2-oxo-3-aminoquinoxaline hydrochloride]",45 µg/mL,23 µg/mL,
"Cn1c(=O)c2[nH]cnc2n(C)c1=O [Theophylline, reference compound]",30 µg/mL,30 µg/mL,

# Second part, led by results:
IC50 [1],IC50 [2],Structure (SMILES),change in vivo at 100 mg/kg (Zymosan Pleurisy)
4.7 µg/mL,6.4 µg/mL,"CCCn1c(=O)c(NC)nc2ccccc21.Cl [Compound 6, 1-n-propyl-1,2-dihydro-2-oxo-3-methylaminoquinoxaline hydrochloride]",-27%
45 µg/mL,5.7 µg/mL,CCCCn1c(=O)c(N(C)C)nc2ccccc21 [Compound 10],-47%
9.1 µg/mL,1.1 µg/mL,C=CCn1c(=O)c(NC)nc2ccccc21 [Compound 12],-31%
19.3 µg/mL,8.6 µg/mL,C=CCn1c(=O)c(N(C)C)nc2ccccc21 [Compound 13],-43%
,13.5 µg/mL,CC(C)=CCn1c(=O)c(N(C)C)nc2ccccc21 [Compound 16],
